# In ChEMBL document CHEMBL5352460, “Antibacterial activity evaluation of pleuromutilin derivatives with 4(3H)-quinazolinone scaffold against methicillin-resistant Staphylococcusaureus” (Eur J Med Chem, 2023):
# Experiments:
# Staphylococcus aureus [1] = test: microbe, parasite or virus in culture; format: functional; conditions: ATCC25923, time 20 hrs
# [2] = Antibacterial activity against Salmonella pullorum assessed as inhibition of bacterial growth incubated for 20 hrs by absorbance based analysis; format: functional, Salmonella enterica subsp. enterica serovar Pullorum; conditions: Salmonella enterica
# Escherichia coli = test: microbe, parasite or virus in culture; format: functional; conditions: ATCC25922, time 20 hrs
# Staphylococcus aureus [3] = test: microbe, parasite or virus in culture; format: functional; conditions: ATCC29213, time 20 hrs
# [4] = tested on: Staphylococcus epidermidis; test: Antibacterial activity against methicillin-resistant Staphylococcus epidermidis assessed as inhibition of bacterial growth incubated for 20 hrs by absorbance based analysis; format: functional
# Staphylococcus aureus [5] = test: microbe, parasite or virus in culture; format: functional; conditions: time 20 hrs
# [6] = Metabolic stability in rat liver microsomes assessed as parent compound remaining incubated for 45 mins in the presence of NADPH by LC/MS analysis; format: ADME, Microsome; conditions: read-out: Stability
# [7] = Metabolic stability in rat liver microsomes assessed as intrinsic clearance incubated for 45 mins in the presence of NADPH by LC/MS analysis; format: ADME, Microsome; conditions: read-out: CLH
# [8] = Metabolic stability in rat liver microsomes assessed as half-life incubated for 45 mins in the presence of NADPH by LC/MS analysis; format: ADME, Microsome
remaining at 0.75 h [6],microsomal CLint [7],half-life [8],SMILES,MIC (Staphylococcus aureus [1]),MIC [2],MIC (Escherichia coli),MIC (Staphylococcus aureus [3]),MIC [4],MIC (Staphylococcus aureus [5])
–,–,–,C=C[C@]1(C)C[C@@H](OC(=O)CN2CCN(Cc3nc4ccccc4c(=O)[nH]3)CC2)[C@]2(C)[C@H](C)CC[C@]3(CCC(=O)[C@H]32)[C@@H](C)[C@@H]1O,1 µg/mL,> 64 µg/mL,> 64 µg/mL,1 µg/mL,2 µg/mL,2 µg/mL
–,–,–,C=C[C@]1(C)C[C@@H](OC(=O)CSc2nc3sccc3c(=O)[nH]2)[C@]2(C)[C@H](C)CC[C@]3(CCC(=O)[C@H]32)[C@@H](C)[C@@H]1O,0.25 µg/mL,> 64 µg/mL,64 µg/mL,0.25 µg/mL,1 µg/mL,0.25 µg/mL
–,–,–,C=C[C@]1(C)C[C@@H](OC(=O)CSc2nc3cccc(Br)c3c(=O)n2-c2ccccc2)[C@]2(C)[C@H](C)CC[C@]3(CCC(=O)[C@H]32)[C@@H](C)[C@@H]1O,> 64 µg/mL,> 64 µg/mL,> 64 µg/mL,> 64 µg/mL,> 64 µg/mL,> 64 µg/mL
–,–,–,C=C[C@]1(C)C[C@@H](OC(=O)CSc2nc3ccc(Br)cc3c(=O)[nH]2)[C@]2(C)[C@H](C)CC[C@]3(CCC(=O)[C@H]32)[C@@H](C)[C@@H]1O,0.25 µg/mL,> 64 µg/mL,> 64 µg/mL,0.25 µg/mL,2 µg/mL,0.25 µg/mL
–,–,–,C=C[C@]1(C)C[C@@H](OC(=O)CSc2nc3c(Br)cccc3c(=O)[nH]2)[C@]2(C)[C@H](C)CC[C@]3(CCC(=O)[C@H]32)[C@@H](C)[C@@H]1O,0.25 µg/mL,> 64 µg/mL,> 64 µg/mL,0.5 µg/mL,2 µg/mL,0.25 µg/mL
–,–,–,C=C[C@]1(C)C[C@@H](OC(=O)CSc2nc3cccc([N+](=O)[O-])c3c(=O)[nH]2)[C@]2(C)[C@H](C)CC[C@]3(CCC(=O)[C@H]32)[C@@H](C)[C@@H]1O,0.25 µg/mL,> 64 µg/mL,> 64 µg/mL,0.25 µg/mL,4 µg/mL,0.25 µg/mL
–,–,–,C=C[C@]1(C)C[C@@H](OC(=O)CSc2nc3cc(C)ccc3c(=O)[nH]2)[C@]2(C)[C@H](C)CC[C@]3(CCC(=O)[C@H]32)[C@@H](C)[C@@H]1O,0.25 µg/mL,> 64 µg/mL,> 64 µg/mL,0.5 µg/mL,2 µg/mL,0.5 µg/mL
–,–,–,C=C[C@]1(C)C[C@@H](OC(=O)CSc2nc3ccccc3c(=O)n2CC)[C@]2(C)[C@H](C)CC[C@]3(CCC(=O)[C@H]32)[C@@H](C)[C@@H]1O,0.125 µg/mL,> 64 µg/mL,> 64 µg/mL,0.125 µg/mL,2 µg/mL,0.25 µg/mL
–,–,–,C=C[C@]1(C)C[C@@H](OC(=O)CSc2nc3cccc(C)c3c(=O)[nH]2)[C@]2(C)[C@H](C)CC[C@]3(CCC(=O)[C@H]32)[C@@H](C)[C@@H]1O,0.25 µg/mL,> 64 µg/mL,> 64 µg/mL,0.25 µg/mL,2 µg/mL,0.25 µg/mL
–,–,–,C=C[C@]1(C)C[C@@H](OC(=O)CSc2nc3ccc(OC)cc3c(=O)[nH]2)[C@]2(C)[C@H](C)CC[C@]3(CCC(=O)[C@H]32)[C@@H](C)[C@@H]1O,0.25 µg/mL,> 64 µg/mL,> 64 µg/mL,0.125 µg/mL,4 µg/mL,0.25 µg/mL
–,–,–,C=C[C@]1(C)C[C@@H](OC(=O)CN2CCN(C(=O)c3nc4ccccc4c(=O)[nH]3)CC2)[C@]2(C)[C@H](C)CC[C@]3(CCC(=O)[C@H]32)[C@@H](C)[C@@H]1O,1 µg/mL,> 64 µg/mL,> 64 µg/mL,0.5 µg/mL,2 µg/mL,0.5 µg/mL
–,–,–,C=C[C@]1(C)C[C@@H](OC(=O)CSc2nc3c(c(=O)[nH]2)CCC3)[C@]2(C)[C@H](C)CC[C@]3(CCC(=O)[C@H]32)[C@@H](C)[C@@H]1O,0.25 µg/mL,> 64 µg/mL,> 64 µg/mL,0.25 µg/mL,1 µg/mL,0.25 µg/mL
33.5%,88.9 µL/min/mg,27.9 min,O=C(c1ccc(F)cc1)C1CCN(CCn2c(=O)[nH]c3ccccc3c2=O)CC1 [KETANSERIN],–,–,–,–,–,–
–,–,–,C=C[C@]1(C)C[C@@H](OC(=O)CSc2nc3c(Cl)cccc3c(=O)[nH]2)[C@]2(C)[C@H](C)CC[C@]3(CCC(=O)[C@H]32)[C@@H](C)[C@@H]1O,0.125 µg/mL,> 64 µg/mL,> 64 µg/mL,0.125 µg/mL,1 µg/mL,0.125 µg/mL
–,–,–,C=C[C@]1(C)C[C@@H](OC(=O)CSc2nc3cc(F)ccc3c(=O)[nH]2)[C@]2(C)[C@H](C)CC[C@]3(CCC(=O)[C@H]32)[C@@H](C)[C@@H]1O,0.5 µg/mL,> 64 µg/mL,> 64 µg/mL,0.25 µg/mL,4 µg/mL,0.5 µg/mL
–,–,–,C=C[C@]1(C)C[C@@H](OC(=O)CSc2nc3ccccc3c(=O)n2-c2ccccc2)[C@]2(C)[C@H](C)CC[C@]3(CCC(=O)[C@H]32)[C@@H](C)[C@@H]1O,32 µg/mL,> 64 µg/mL,> 64 µg/mL,32 µg/mL,64 µg/mL,32 µg/mL
–,–,–,C=C[C@]1(C)C[C@@H](OC(=O)CSc2nc3ccccc3c(=O)n2C)[C@]2(C)[C@H](C)CC[C@]3(CCC(=O)[C@H]32)[C@@H](C)[C@@H]1O,0.125 µg/mL,> 64 µg/mL,64 µg/mL,0.063 µg/mL,0.5 µg/mL,0.25 µg/mL
–,–,–,C=C[C@]1(C)C[C@@H](OC(=O)CSc2nc3ncccc3c(=O)[nH]2)[C@]2(C)[C@H](C)CC[C@]3(CCC(=O)[C@H]32)[C@@H](C)[C@@H]1O,4 µg/mL,> 64 µg/mL,> 64 µg/mL,2 µg/mL,8 µg/mL,2 µg/mL
–,–,–,C=C[C@]1(C)C[C@@H](OC(=O)CSc2nc3c(C)cccc3c(=O)[nH]2)[C@]2(C)[C@H](C)CC[C@]3(CCC(=O)[C@H]32)[C@@H](C)[C@@H]1O,0.25 µg/mL,> 64 µg/mL,> 64 µg/mL,0.125 µg/mL,1 µg/mL,0.125 µg/mL
–,–,–,C=C[C@]1(C)C[C@@H](OC(=O)CSc2nc3ccccc3c(=O)n2C2CCCCC2)[C@]2(C)[C@H](C)CC[C@]3(CCC(=O)[C@H]32)[C@@H](C)[C@@H]1O,> 64 µg/mL,> 64 µg/mL,> 64 µg/mL,> 64 µg/mL,> 64 µg/mL,> 64 µg/mL
–,–,–,C=C[C@]1(C)C[C@@H](OC(=O)CSc2nc3ccccc3c(=O)[nH]2)[C@]2(C)[C@H](C)CC[C@]3(CCC(=O)[C@H]32)[C@@H](C)[C@@H]1O,0.25 µg/mL,> 64 µg/mL,> 64 µg/mL,0.25 µg/mL,1 µg/mL,0.25 µg/mL
–,–,–,C=C[C@]1(C)C[C@@H](OC(=O)CSc2nc3cccc(OC)c3c(=O)[nH]2)[C@]2(C)[C@H](C)CC[C@]3(CCC(=O)[C@H]32)[C@@H](C)[C@@H]1O,0.25 µg/mL,> 64 µg/mL,> 64 µg/mL,0.25 µg/mL,4 µg/mL,0.25 µg/mL
–,–,–,C=C[C@]1(C)C[C@@H](OC(=O)CSc2nc3ccc(F)cc3c(=O)[nH]2)[C@]2(C)[C@H](C)CC[C@]3(CCC(=O)[C@H]32)[C@@H](C)[C@@H]1O,0.25 µg/mL,> 64 µg/mL,> 64 µg/mL,0.25 µg/mL,2 µg/mL,0.5 µg/mL
–,–,–,C=C[C@]1(C)C[C@@H](OC(=O)CSc2nc3cc(OC)ccc3c(=O)[nH]2)[C@]2(C)[C@H](C)CC[C@]3(CCC(=O)[C@H]32)[C@@H](C)[C@@H]1O,0.25 µg/mL,> 64 µg/mL,> 64 µg/mL,0.25 µg/mL,1 µg/mL,0.25 µg/mL
–,–,–,C=C[C@]1(C)C[C@@H](OC(=O)CSc2nc3cccc(F)c3c(=O)[nH]2)[C@]2(C)[C@H](C)CC[C@]3(CCC(=O)[C@H]32)[C@@H](C)[C@@H]1O,0.25 µg/mL,> 64 µg/mL,> 64 µg/mL,0.25 µg/mL,2 µg/mL,0.25 µg/mL
–,–,–,C=C[C@]1(C)C[C@@H](OC(=O)CSc2nc3cc(Cl)ccc3c(=O)[nH]2)[C@]2(C)[C@H](C)CC[C@]3(CCC(=O)[C@H]32)[C@@H](C)[C@@H]1O,0.5 µg/mL,> 64 µg/mL,> 64 µg/mL,0.25 µg/mL,1 µg/mL,0.5 µg/mL
–,–,–,C=C[C@]1(C)C[C@@H](OC(=O)CSc2nc3cc(Br)ccc3c(=O)[nH]2)[C@]2(C)[C@H](C)CC[C@]3(CCC(=O)[C@H]32)[C@@H](C)[C@@H]1O,0.25 µg/mL,> 64 µg/mL,> 64 µg/mL,0.25 µg/mL,4 µg/mL,0.5 µg/mL
–,–,–,C=C[C@]1(C)C[C@@H](OC(=O)CSc2nc3ccc(Cl)cc3c(=O)[nH]2)[C@]2(C)[C@H](C)CC[C@]3(CCC(=O)[C@H]32)[C@@H](C)[C@@H]1O,0.25 µg/mL,> 64 µg/mL,> 64 µg/mL,0.25 µg/mL,1 µg/mL,0.25 µg/mL
–,–,–,C=C[C@]1(C)C[C@@H](OC(=O)CSc2nc3ccc(C)cc3c(=O)[nH]2)[C@]2(C)[C@H](C)CC[C@]3(CCC(=O)[C@H]32)[C@@H](C)[C@@H]1O,0.5 µg/mL,> 64 µg/mL,> 64 µg/mL,0.25 µg/mL,2 µg/mL,0.5 µg/mL
